In patent US8093406B2, “Cyclic sulfones with aminobenzyl substitution useful as BACE inhibitors” (Novartis AG, priority 2008, dated 2012):
Where a name gives a salt, the structure may show the parent alone. Read-outs that look alike come from different tables or passages of the source.

Target: T1, Human BACE (Homo sapiens, UniProt P56817)
T1 construct: Recombinant BACE (extracellular domain, expressed in baculovirus and purified using standard methods); made in house
Experiment: Test 1: Inhibition of Human BACE
Assay type: biochemical
Method: Test 1: Inhibition of Human BACE
Recombinant BACE (extracellular domain, expressed in baculovirus and purified using standard methods) at 0.1 to 10 nM concentrations is incubated with the test compound at various concentrations for 1 hour at room temperature in 10 to 100 mM acetate buffer, pH 4.5, containing 0.1% CHAPS. […] IC50 values are calculated from percentage of inhibition of BACE-activity as a function of the test compound concentration.

[1] = Test 1, recombinant BACE extracellular domain, acetate buffer pH 4.5, 1 hour incubation at room temperature, fluorescence-quenched APP-derived peptide substrate, read-out: Bace IC50

T1 sequence (P56817 46-457 limits assumed): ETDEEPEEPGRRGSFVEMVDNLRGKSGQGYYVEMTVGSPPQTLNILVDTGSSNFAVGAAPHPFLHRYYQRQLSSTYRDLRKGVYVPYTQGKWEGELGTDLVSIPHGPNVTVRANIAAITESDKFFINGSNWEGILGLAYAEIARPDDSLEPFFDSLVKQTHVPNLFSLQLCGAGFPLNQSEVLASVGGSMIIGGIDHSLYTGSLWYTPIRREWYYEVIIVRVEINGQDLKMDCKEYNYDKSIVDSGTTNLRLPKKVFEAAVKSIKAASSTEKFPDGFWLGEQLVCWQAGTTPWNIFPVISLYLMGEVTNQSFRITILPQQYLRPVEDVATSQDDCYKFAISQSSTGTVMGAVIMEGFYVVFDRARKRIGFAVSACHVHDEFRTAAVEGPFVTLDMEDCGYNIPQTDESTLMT

CC(C)(C)c1cccc(CN[C@H]2CS(=O)(=O)C[C@@H](Cc3cc(F)c(N)c(O[C@H](CN)C(F)(F)F)c3)[C@@H]2O)c1 [Example 39, (3S,4S,5R)-3-[4-Amino-3-((R)-1-aminomethyl-2,2,2-trifluoro-ethoxy)-5-fluoro-benzyl]-5-(3-tert-butyl-benzylamino)-1,1-dioxo-hexahydro-1lambda*6*-thiopyran-4-ol]
IC50 [1]: 71 nM

COCC(Oc1cc(CC2C[S+]([O-])CC(NCc3cccc(OC)c3)C2O)cc(F)c1N)C(F)(F)F (stereo not drawn) [Example 59]
IC50 [1]: 384 nM

COC[C@@H](Oc1cc(C[C@@H]2C[S@@+]([O-])C[C@H](NCc3cccc(C(C)(C)C)c3)C2=O)cc(F)c1N)C(F)(F)F [Example 64, (1R,3S,5R)-3-[4-Amino-3-fluoro-5-((R)-2,2,2-trifluoro-1-methoxymethyl-ethoxy)-benzyl]-5-(3-tert-butyl-benzylamino)-1-oxo-tetrahydro-thiopyran-4-one trifluoroacetate]
IC50: 4 nM

CCCNC(=O)c1cc(CC2CS(=O)(=O)CC(NCc3cccc(C(C)(C)C)c3)C2O)ccc1N (stereo not drawn) [Example 20]
IC50 [1]: 151 nM

CC(C)(C)c1cccc(CN[C@H]2CS(=O)(=O)C[C@@H](Cc3cc(F)c(NC(=O)CNC4CC4)c(Cl)c3)[C@@H]2O)c1 [Example 14, N-{4-[(3S,4S,5R)-5-(3-tert-butyl-benzylamino)-4-hydroxy-1,1-dioxo-hexa-hydro-1lambda*6*-thiopyran-3-ylmethyl]-2-chloro-6-fluoro-phenyl}-2-cyclopropylamino-acetamide]
IC50 [1]: 22 nM

CCNC(=O)c1cc(CC2CS(=O)(=O)CC(NCc3cccc(C(C)(C)C)c3)C2O)ccc1N (stereo not drawn) [Example 19]
IC50 [1]: 26 nM

CCNCc1cc(C[C@@H]2CS(=O)(=O)C[C@H](NCc3cccc(C(C)(C)C)c3)[C@H]2O)cc(F)c1N (relative stereo) [Example 3, (3S*,4S*,5R*)-3-(4-Amino-3-ethylaminomethyl-5-fluoro-benzyl)-5-(3-tert-butyl-benzylamino)-1,1-dioxo-hexahydro-1lambda*6*-thiopyran-4-ol hydrochloride]
IC50 [1]: 1140 nM

COC[C@@H](Oc1cc(C[C@@H]2C[S+]([O-])C[C@H](NCc3cccc(C4(C)CC4)c3)[C@H]2O)cc(F)c1N)C(F)(F)F (stereo partly drawn) [Example 43, (3S,4S,5R)-3-[4-Amino-3-fluoro-5-((R)-2,2,2-trifluoro-1-methoxymethyl-ethoxy)-benzyl]-5-[3-(1-methyl-cyclopropyl)-benzylamino]-1-oxo-hexahydro-1lambda*4*-thiopyran-4-ol hydrochloride]
IC50 [1]: 10 nM

C[Si](C)(C)c1cccc(CN[C@H]2CS(=O)(=O)C[C@@H](Cc3cc(F)c(N)c(OC(C(F)(F)F)C(F)(F)F)c3)[C@@H]2O)c1 [Example 31, (3S,4S,5R)-3-[4-Amino-3-fluoro-5-(2,2,2-trifluoro-1-trifluoromethyl-ethoxy)-benzyl]-1,1-dioxo-5-(3-trimethylsilanyl-benzylamino)-hexahydro-1lambda*6*-thiopyran-4-ol]
IC50 [1]: 22 nM

COC[C@@H](Oc1cc(C[C@@H]2C[S@@+]([O-])C[C@H](NCc3cc(OC)cc(C(C)C)c3)[C@H]2O)cc(F)c1N)C(F)(F)F [Example 48, (1R,3S,4S,5R)-3-[4-Amino-3-fluoro-5-((R)-2,2,2-trifluoro-1-methoxymethyl-ethoxy)-benzyl]-5-(3-isopropyl-5-methoxy-benzylamino)-1-oxo-tetrahydro-thiopyran-4-ol]
IC50 [1]: 26 nM

CC(C)(C)c1cccc(CN[C@H]2CS(=O)(=O)C[C@@H](Cc3cc(F)c(N)c(N4CCC4=O)c3)[C@@H]2O)c1 (relative stereo) [Example 5, 1 {2-Amino-5-[(3S*,4S*,5R*)-5-(3-tert-butyl-benzylamino)-4-hydroxy-1,1-dioxo-hexahydro-1lambda*6*-thiopyran-3-ylmethyl]-3-fluoro-phenyl}-azetidin-2-one]
IC50 [1]: 4700 nM

CC(C)(C)c1cccc(CNC2CS(=O)(=O)CC(Cc3ccc(N)c(C(=O)NCCF)c3)C2O)c1 (stereo not drawn) [Example 22]
IC50 [1]: 46 nM

COC[C@@H](Oc1cc(C[C@@H]2CSC[C@H](NCc3cccc(C(C)(C)C)c3)[C@H]2O)cc(F)c1N)C(F)(F)F [Example 40, (3S,4S,5R)-3-[4-Amino-3-fluoro-5-((R)-2,2,2-trifluoro-1-methoxymethyl-ethoxy)-benzyl]-5-(3-tert-butyl-benzylamino)-tetrahydro-thiopyran-4-ol hydrochloride]
IC50 [1]: 247 nM

CCNCC(=O)Nc1c(F)cc(C[C@@H]2CS(=O)(=O)C[C@H](NCc3cccc(C(C)(C)C)c3)[C@H]2O)cc1CC [Example 8, N-{4-[(3S,4S,5R)-5-(3-tert-Butyl-benzylamino)-4-hydroxy-1,1-dioxo-hexahydro-1lambda*6*-thiopyran-3-ylmethyl]-2-ethyl-6-fluoro-phenyl}-2-ethylamino-acetamide dihydrochloride]
IC50 [1]: 42 nM

CC(C)(C)c1cccc(CNC2CS(=O)(=O)CC(Cc3ccc(N)c(C(=O)NCC4CC4)c3)C2O)c1 (stereo not drawn) [Example 21]
IC50 [1]: 8 nM

CNCC(=O)Nc1c(F)cc(C[C@@H]2CS(=O)(=O)C[C@H](NCc3cccc(C(C)(C)C)c3)[C@H]2O)cc1Cl [Example 13]
IC50 [1]: 28 nM

CC(C)(C)NCC(=O)Nc1c(F)cc(C[C@@H]2CS(=O)(=O)C[C@H](NCc3cccc(C(C)(C)C)c3)[C@H]2O)cc1Cl [Example 15]
IC50 [1]: 50 nM

CC(C)(C)c1cccc(CN[C@H]2CS(=O)(=O)C[C@@H](Cc3cc(F)c(NCCNC4CC4)c(Cl)c3)[C@@H]2O)c1 [Example 17, (3R,4S,5S)-3-(3-tert-Butyl-benzylamino)-5-[3-chloro-4-(2-cyclopropyl-amino-ethylamino)-5-fluoro-benzyl]-1,1-dioxo-hexahydro-1lambda*6*-thiopyran-4-ol hydrochloride]
IC50 [1]: 1760 nM

COCC(Oc1cc(CC2C[S+]([O-])CC(NCc3cccc(OC(F)F)c3)C2O)cc(F)c1N)C(F)(F)F (stereo not drawn) [Example 62]
IC50 [1]: 334 nM

CCNCC(=O)Nc1c(F)cc(C[C@@H]2CS(=O)(=O)C[C@H](NCc3cccc(C(C)(C)C)c3)[C@H]2O)cc1OCC(F)(F)F [Example 27]
IC50 [1]: 3 nM

COC[C@@H](Oc1cc(C[C@@H]2C[S@@+]([O-])C[C@H](NCc3ccc4c(c3)OC(C)(C)C4)[C@H]2O)cc(F)c1N)C(F)(F)F [Example 50, (1R,3S,4S,5R)-3-[4-Amino-3-fluoro-5-((R)-2,2,2-trifluoro-1-methoxymethyl-ethoxy)-benzyl]-5-[(2,2-dimethyl-2,3-dihydro-benzofuran-6-ylmethyl)-amino]-1-oxo-tetrahydro-thiopyran-4-ol dihydrochloride]
IC50 [1]: 2400 nM

CN(C)CC(=O)Nc1c(F)cc(C[C@@H]2CS(=O)(=O)C[C@H](NCc3cccc(C(C)(C)C)c3)[C@H]2O)cc1OCC(F)(F)F [Example 26, N-[4-[(3S,4S,5R)-5-(3-tert-Butyl-benzylamino)-4-hydroxy-1,1-dioxo-hexahydro-1lambda*6*-thiopyran-3-ylmethyl]-2-fluoro-6-(2,2,2-trifluoro-ethoxy)-phenyl]-2-dimethylamino-acetamide dihydrochloride]
IC50 [1]: 7 nM

CC(C)(C)c1cccc(CN[C@H]2CS(=O)(=O)C[C@@H](Cc3cc(F)c(NC(=O)CN4CCCCC4)c(OCC(F)(F)F)c3)[C@@H]2O)c1 [Example 29]
IC50 [1]: 5 nM

COC[C@@H](Oc1cc(C[C@@H]2C[S@@+]([O-])C[C@H](NCc3cc(OC)cc(C(C)(C)C)c3)[C@H]2O)cc(F)c1N)C(F)(F)F [Example 49, (1R,3S,4S,5R)-3-[4-Amino-3-fluoro-5-((R)-2,2,2-trifluoro-1-methoxymethyl-ethoxy)-benzyl]-5-(3-tert-butyl-5-methoxy-benzylamino)-1-oxo-tetrahydro-thiopyran-4-ol dihydrochloride]
IC50 [1]: 15 nM

COC[C@@H](Oc1cc(C[C@@H]2C[S@@+]([O-])C[C@H](NCc3cccc(C(C)(C)C(F)(F)F)c3)[C@H]2O)cc(F)c1N)C(F)(F)F [Example 44, (1R,3S,4S,5R)-3-[4-Amino-3-fluoro-5-((R)-2,2,2-trifluoro-1-methoxymethyl-ethoxy)-benzyl]-1-oxo-5-[3-(2,2,2-trifluoro-1,1-dimethyl-ethyl)-benzylamino]-tetrahydro-thiopyran-4-ol]
IC50 [1]: 27 nM

CCNCC(=O)Nc1c(F)cc(C[C@@H]2CS(=O)(=O)C[C@H](NCc3cccc(C(C)(C)C)c3)[C@H]2O)cc1Cl [Example 12]
IC50 [1]: 20 nM

CC(C)(C)c1cccc(CN[C@H]2CS(=O)(=O)C[C@@H](Cc3cc(F)c(N)c(O[C@H](CO)C(F)(F)F)c3)[C@@H]2O)c1 [Example 38, (3S,4S,5R)-3-[4-Amino-3-fluoro-5-((R)-2,2,2-trifluoro-1-hydroxymethyl-ethoxy)-benzyl]-5-(3-tert-butyl-benzylamino)-1,1-dioxo-hexahydro-1lambda*6*-thio-pyran-4-ol]
IC50 [1]: 3 nM

CC(C)(C)c1cccc(CN[C@H]2CS(=O)(=O)C[C@@H](Cc3cc(F)c(NC(=O)CN4CCC4)c(OCC(F)(F)F)c3)[C@@H]2O)c1 [Example 28]
IC50 [1]: 7 nM

CN(C)CC(=O)Nc1c(F)cc(C[C@@H]2CS(=O)(=O)C[C@H](NCc3cccc(C(C)(C)C)c3)[C@H]2O)cc1Cl [Example 11, N-{4-[(3S,4S,5R)-5-(3-tert-Butyl-benzylamino)-4-hydroxy-1,1-dioxo-hexa-hydro-1lambda*6*-thiopyran-3-ylmethyl]-2-chloro-6-fluoro-phenyl}-2-dimethylamino-acetamide dihydrochloride]
IC50 [1]: 74 nM

C[C@H](Oc1cc(C[C@@H]2C[S@@+]([O-])C[C@H](NCc3ccc4c(c3)C(C)(C)OC4)[C@H]2O)cc(F)c1N)C(F)(F)F [Example 52, (1R,3S,4S,5R)-3-[4-Amino-3-fluoro-5-((S)-2,2,2-trifluoro-1-methyl-ethoxy)-benzyl]-5-[(3,3-dimethyl-1,3-dihydro-isobenzofuran-5-ylmethyl)-amino]-1-oxo-hexa-hydro-1lambda*4*-thiopyran-4-ol]
IC50 [1]: 117 nM
